Measured values as given in ChEMBL document CHEMBL5154828 (J Med Chem, 2022).
Activity calls are given as the source filed them. The calls are words filed in the database; no cut-off is given here.

Tests used:
T47D = experiment: Antiproliferative activity against human T47D cells assessed as inhibition of cell growth measured after 7 days by cell titre glo luminescence assay; format: functional, cell-based; conditions: time 7.0 day
[1] = Ratio of drug concentration in rat blood to plasma at 20 mg/kg, po measured after 2 hrs; conditions: blood and plasma
[2] = molecular target: T1, Estrogen receptor (Homo sapiens) (UniProt P03372); experiment: Induction of ERalpha degradation in human BT-474 cells incubated 24 hrs by Western blot analysis; format: cell-based; conditions: dose 0.1-1000 nM, DDE = dose-dependent effect
T1 sequence (whole entry): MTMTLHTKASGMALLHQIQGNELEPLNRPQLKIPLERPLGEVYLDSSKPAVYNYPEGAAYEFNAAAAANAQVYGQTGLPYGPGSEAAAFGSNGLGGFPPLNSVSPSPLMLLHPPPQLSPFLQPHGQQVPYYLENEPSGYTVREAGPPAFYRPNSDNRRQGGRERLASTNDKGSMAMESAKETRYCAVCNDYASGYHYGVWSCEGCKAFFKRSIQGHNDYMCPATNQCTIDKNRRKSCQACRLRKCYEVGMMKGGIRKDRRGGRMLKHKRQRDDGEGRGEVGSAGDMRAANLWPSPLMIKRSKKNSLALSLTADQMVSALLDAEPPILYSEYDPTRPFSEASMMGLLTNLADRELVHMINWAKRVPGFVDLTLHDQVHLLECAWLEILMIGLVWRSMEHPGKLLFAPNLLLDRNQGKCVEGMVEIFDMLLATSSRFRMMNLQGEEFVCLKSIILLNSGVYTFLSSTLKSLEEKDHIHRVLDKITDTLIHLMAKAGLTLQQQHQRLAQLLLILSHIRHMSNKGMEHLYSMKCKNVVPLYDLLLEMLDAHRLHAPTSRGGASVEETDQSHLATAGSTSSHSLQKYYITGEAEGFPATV

MDA-MB-361 = experiment: Antiproliferative activity against human MDA-MB-361 cells assessed as inhibition of cell growth measured after 10 days by cell titre glo luminescence assay; format: functional, cell-based; conditions: time 10.0 day
[3] = Drug concentration in rat breast at 20 mg/kg, po measured after 2 hrs; format: ADME, organism-based; conditions: read-out: Ct
[4] = Drug concentration in rat ovary at 20 mg/kg, po measured after 2 hrs; format: ADME, organism-based, Female gonad; conditions: female, read-out: Ct
[5] = Drug concentration in rat brain at 20 mg/kg, po measured after 2 hrs; format: ADME, organism-based; conditions: read-out: Ct
[6] = AUC (0 to t) in ICR mouse at 5 mg/kg, po measured up to 24 hrs by LC/MS/MS analysis; format: ADME, organism-based; parameters: time < 24 hrs, dose 5 mg/kg, route po; conditions: in vivo
[7] = Ratio of drug concentration in rat brain to plasma at 20 mg/kg, po measured after 2 hrs
[8] = molecular target: T1, Estrogen receptor (Homo sapiens); experiment: Induction of ERalpha degradation in human MDA-MB-361 cells incubated 24 hrs by Western blot analysis; format: cell-based; conditions: dose 0.1-1000 nM, DDE = dose-dependent effect
[9] = Ratio of drug concentration in rat liver to plasma at 20 mg/kg, po measured after 2 hrs
Estrogen receptor [10] = molecular target: Estrogen receptor (Homo sapiens, UniProt P03372, Y537S); experiment: Antagonist activity at ERalpha Y537S mutant degradation in human SK-BR-3 cells incubated for 24 hrs in presence of beta-estradiol by luciferase gene assay; format: cell-based
Chain of Estrogen receptor (Homo sapiens, UniProt P03372, Y537S) (P03372 whole entry Y537S): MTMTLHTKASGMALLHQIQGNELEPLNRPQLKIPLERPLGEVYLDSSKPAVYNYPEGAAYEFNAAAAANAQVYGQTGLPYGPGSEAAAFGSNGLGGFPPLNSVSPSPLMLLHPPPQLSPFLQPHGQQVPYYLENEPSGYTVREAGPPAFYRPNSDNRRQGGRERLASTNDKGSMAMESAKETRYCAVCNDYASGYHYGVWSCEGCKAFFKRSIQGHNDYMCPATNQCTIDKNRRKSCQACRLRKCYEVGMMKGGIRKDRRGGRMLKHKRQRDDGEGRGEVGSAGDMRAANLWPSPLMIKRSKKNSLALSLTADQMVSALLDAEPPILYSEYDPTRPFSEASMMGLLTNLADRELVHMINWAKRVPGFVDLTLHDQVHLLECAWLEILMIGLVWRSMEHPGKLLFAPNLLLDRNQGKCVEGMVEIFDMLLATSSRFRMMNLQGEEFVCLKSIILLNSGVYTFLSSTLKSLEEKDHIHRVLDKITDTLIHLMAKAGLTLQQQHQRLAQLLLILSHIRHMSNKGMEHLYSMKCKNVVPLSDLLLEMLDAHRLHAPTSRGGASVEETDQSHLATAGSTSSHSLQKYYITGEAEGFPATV

[11] = MRT in ICR mouse at 5 mg/kg, po measured up to 24 hrs by LC/MS/MS analysis; format: ADME, organism-based; conditions: in vivo
Estrogen receptor [12] = molecular target: T2, Estrogen receptor (Homo sapiens, UniProt P03372); experiment: Induction of ERalpha degradation in human MCF7 cells incubated for 24 hrs by Western blot analysis; format: cell-based
T2 sequence (P03372 whole entry): T1 sequence (whole entry)

[13] = molecular target: T1, Estrogen receptor (Homo sapiens); experiment: Induction of ERalpha degradation in human MCF7 cells at 1 nM by Western blot analysis; format: cell-based; conditions: time 0.5-24 hrs, TDE = time-dependent effect

SMILES: CC(F)(F)c1cc(Cl)ccc1-c1sc2c(ccc3[nH]ncc32)c1Oc1ccc(OC2CN(CCCF)C2)cc1
- Activity (T47D): Active
- blood plasma ratio at 2 h [1]: 0.8
- Activity [2]: Dde
- Activity (MDA-MB-361): Active
- concentration at 2 h [3]: 2410 ng/mL
- concentration at 2 h [4]: 4420 ng/mL
- concentration at 2 h [5]: 442 ng/mL
- AUC(0-t) at 24 h [6]: 7710 ng·h/mL
- Kp at 2 h [7]: 0.7
- Activity [8]: Dde
- Kp at 2 h [9]: 34.9
- IC50 (Estrogen receptor [10]): 10.3 nM
- MRT [11]: 8.2 h
- EC50 (Estrogen receptor [12]): 1.1 nM
- Activity [13]: Tde
